Consider two sequences from patent US20100183625A1, “Treatment of Mucositis with Kallikrein Inhibitors” (Dyax Corp., priority 2009, published 2010).

Data set [1] deals with plasma kallikrein (NP_000883) (Homo sapiens, UniProt P03952). The settings on record: cited from earlier work.
The conditions of data set [2]: Lot 100808, phosphate buffered saline, pH 7.0, 5.6 mg/mL.
For a further data set, the target named is pKal (Homo sapiens, UniProt P03952). The settings on record: read-out: Ki,app; active site inhibitor of pKal; cited from earlier work.

Positions of bridges follow the written chain, without caps; N, C: chain ends. No end group written: not given here.

Sequence of plasma kallikrein (NP_000883) (P03952 20-638): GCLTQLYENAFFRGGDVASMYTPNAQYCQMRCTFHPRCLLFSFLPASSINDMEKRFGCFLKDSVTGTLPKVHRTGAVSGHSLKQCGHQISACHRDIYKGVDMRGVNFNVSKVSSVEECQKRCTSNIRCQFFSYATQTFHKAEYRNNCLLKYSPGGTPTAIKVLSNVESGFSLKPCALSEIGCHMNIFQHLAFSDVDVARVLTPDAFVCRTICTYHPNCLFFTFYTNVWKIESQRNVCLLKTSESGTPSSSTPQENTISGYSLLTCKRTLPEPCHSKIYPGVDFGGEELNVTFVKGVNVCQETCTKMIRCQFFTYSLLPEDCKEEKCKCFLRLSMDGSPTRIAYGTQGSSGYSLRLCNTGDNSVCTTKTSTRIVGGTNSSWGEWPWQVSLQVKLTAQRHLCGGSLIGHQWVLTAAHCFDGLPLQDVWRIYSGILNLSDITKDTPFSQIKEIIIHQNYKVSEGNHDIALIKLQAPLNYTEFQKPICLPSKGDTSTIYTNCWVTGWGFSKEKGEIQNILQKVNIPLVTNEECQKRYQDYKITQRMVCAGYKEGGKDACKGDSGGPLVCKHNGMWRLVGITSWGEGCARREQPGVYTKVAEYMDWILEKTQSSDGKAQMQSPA
Sequence of pKal (P03952 20-638): as above

As for “EAMHSFCAFKADDGPCRAAHPRWFFNIFTRQCEEFIYGGCEGNQNRFESLEECKKMCTRD (disulfide 7-57, 16-40, 32-53) [DX-88]”, the Ki in data set [1] is under 1 nM.
On to “EAMHSFCAFKADDGPCRAAHPRWFFNIFTRQCEEFSYGGCGGNQNRFESLEECKKMCTRD (disulfide 7-57, 16-40, 32-53) [EPI-KAL2]”, for which, in data set [2], the Stability result is “Stable for 24 hours at 2-4 °C”. Also, the Ki at pKal was 0.1 nM.
